System: HepG2 cells
Assay: Imaging oxidized thiols in HepG2 cells under oxidative stress by NAI/NAIA couple
Format: cell-based
Settings: 50 μM, 10 min
Description: Imaging Oxidized Thiols in HepG2 Cells Under Oxidative Stress by NAI/NAIA Couple
HepG2 cells were plated on a 8-well Nunc Lab-Tek chambered slide system and allowed to grow in complete medium at 37° C. with 5% CO2 to ca. 70% confluency. The cells were then pretreated with solvent vehicles, H2O2 (0.5 or 1 mM) or H2O2 (1 mM)+NAC (5 mM) in complete medium for 15 min at 37° C. The cells were washed with PBS and incubated with NAI compound 3 (50 μM) in complete medium for 10 min at 37° C. After that, the cells were washed with PBS and fixed by 4% paraformaldehyde in PBS at room temperature for 15 min. […] The cells were washed thrice with PBS and then imaged in PBS by confocal fluorescence microscopy.
Confocal fluorescence microscopy imaging was performed with a Zeiss laser scanning microscope 880 with a 20× water-immersion objective lens using ZEN 2.3 (Black Version) software (Carl Zeiss) with 3× magnification zoom-in. […] A region of interest (ROI) was created around individual cell, and cellular fluorescence intensity was measured. The reported average cellular fluorescence intensity was determined by averaging the measured intensity from 30 different cells from 3 different biological replicates/group. […]
Therefore, we sought to utilize the NAI/NAIA couple to capture oxidized thiols and image them by confocal fluorescence microscopy (FIGS. 12A-12B). […]

## C=CC(=O)N1CCc2cc(OCC(=O)OC(C)(C)C)ccc21 [compound 3b]
  trapping of free thiols in live cells: excellent trapping of free thiols
